The values below come from patent US8946430B2, “Quinolinone carboxamide inhibitors of endothelial lipase” (Bristol-Myers Squibb Company, priority 2011, dated 2015).

This experiment addresses T1, endothelial lipase (EL) (Homo sapiens, UniProt Q9Y5X9).
T1 construct: transformed by RAGE technology (Athersys) to overexpress endogenous EL; endogenous in cells; conditioned medium used as the enzyme source
T1 sequence (Q9Y5X9 21-500): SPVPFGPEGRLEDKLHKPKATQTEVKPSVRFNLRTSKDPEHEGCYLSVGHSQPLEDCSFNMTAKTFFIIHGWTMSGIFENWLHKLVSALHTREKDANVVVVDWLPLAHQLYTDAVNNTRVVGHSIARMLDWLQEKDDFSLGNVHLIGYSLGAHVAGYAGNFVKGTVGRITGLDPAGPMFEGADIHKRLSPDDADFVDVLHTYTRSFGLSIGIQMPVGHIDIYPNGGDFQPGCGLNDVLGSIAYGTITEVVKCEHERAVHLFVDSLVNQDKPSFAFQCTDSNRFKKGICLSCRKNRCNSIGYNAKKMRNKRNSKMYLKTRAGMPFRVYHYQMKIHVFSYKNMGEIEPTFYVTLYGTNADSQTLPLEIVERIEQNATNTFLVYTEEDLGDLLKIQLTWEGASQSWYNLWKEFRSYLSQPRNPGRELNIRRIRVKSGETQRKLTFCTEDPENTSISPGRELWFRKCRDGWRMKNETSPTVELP
Description: Endothelial lipase (EL) enzymatic assay with fluorescent substrate A10070 in DMPG vesicles. Type of experiment: biochemical. The conditions noted are these: conditioned media from HT-1080 cells overexpressing endogenous EL; 20 min preincubation at 37° C.; FRET substrate A10070; read-out: HLE_EL_CRC IC50. The method, then: Endothelial lipase activity was measured using a fluorescent substrate, A10070, (Invitrogen, CA) doped into an artificial vesicle containing DMPG (Avanti Polar Lipids) as the excipient. Vesicles were prepared by combining 285 uL of 1 mM DMPG in a 1:1 mixture of MeOH and CHCl3 with 15 uL of 1 mM A10070 in a 1:1 mixture of MeOH and CHCl3. The mixture was dried under nitrogen and resuspended in 150 uL of 50 mM HEPES pH 8.0 buffer containing 100 mM NaCl and 0.2 mM EDTA. The sample was allowed to sit at rt for 15 min and then was sonicated 3×4 mins on ice with a Branson Sonicator using duty cycle 1. This preparation provides vesicles with a mole fraction of 0.05 for the FRET substrate.
The enzymatic assay was measured using white, opaque 96-well half area plates. Each well contained 60 uL of assay buffer (50 mM HEPES pH 8.0, 50 mM NaCl and 1 mM CaCl2) and 2 ul of a DMSO solution containing compound of interest. Conditioned media obtained from HT-1080 cells, which were transformed by RAGE technology (Athersys) to overexpress endogenous EL, was added and the reaction was allowed to incubate for 20 min at 37° C. with gentle agitation. The reaction was started by the addition of 20 uL of a 1:4 dilution of vesicles. The final total reaction volume was 100 uL. The reaction rates were measured on a Gemini plate reader with an excitation wavelength of 488 nm and a emission of 530 nm. Readings were taken every 20 seconds for 10 min with agitation between each reading. The slope of the linear portion of the readout was used to calculate the rate of the reaction.
As to `Cn1c(=O)c(O)c(C(=O)NCc2ccccc2N2CCC(CO)CC2)c2ccccc21` [Example 141, 3-hydroxy-N-(2-(4-(hydroxymethyl)piperidin-1-yl)benzyl)-1-methyl-2-oxo-1,2-dihydroquinoline-4-carboxamide], the 50% inhibitory concentration (IC50) amounted to 1700 nM.
The same measure for `Cn1c(=O)c(O)c(C(=O)NCCCc2ccc(Cl)cc2Cl)c2ccccc21` [Example 2, N-(3-(2,4-Dichlorophenyl)propyl)-3-hydroxy-1-methyl-2-oxo-1,2-dihydroquinoline-4-carboxamide]: 13 nM.
`O=C(NCCCc1ccc(Cl)c(Cl)c1)c1c(O)c(=O)[nH]c2ccccc12` [Example 5, N-(3-(3,4-dichlorophenyl)propyl)-3-hydroxy-2-oxo-1,2-dihydroquinoline-4-carboxamide]: the IC50 was 11 nM.
The same measure for `O=C(NCCCOc1c(Cl)cccc1Cl)c1c(O)c(=O)[nH]c2ccc(OC(F)(F)F)cc12` [Example 51, N-(3-(2,6-dichlorophenoxy)propyl)-3-hydroxy-2-oxo-6-(trifluoromethoxy)-1,2-dihydroquinoline-4-carboxamide]: 40 nM; for `Cn1c(=O)c(O)c(C(=O)NCc2ccccc2N2CCCC2)c2ccccc21` [Example 109, 3-hydroxy-1-methyl-2-oxo-N-(2-(pyrrolidin-1-yl)benzyl)-1,2-dihydroquinoline-4-carboxamide]: 2910 nM.
To `Cn1c(=O)c(O)c(C(=O)NCc2cccc(-n3cccc3)c2)c2ccccc21` [Example 172, N-(3-(1H-pyrrol-1-yl)benzyl)-3-hydroxy-1-methyl-2-oxo-1,2-dihydroquinoline-4-carboxamide] belongs 10 nM; to `Cn1c(=O)c(O)c(C(=O)NC(Cc2ccccc2)c2ccccc2)c2ccccc21` (stereo not shown) [Example 155, N-(1,2-diphenylethyl)-3-hydroxy-1-methyl-2-oxo-1,2-dihydroquinoline-4-carboxamide], 3120 nM; to `C[C@@H](NC(=O)c1c(O)c(=O)n(C)c2ccccc12)c1cccc(-c2ccccc2)c1` [Example 64, (R)-N-(1-(biphenyl-3-yl)ethyl)-3-hydroxy-1-methyl-2-oxo-1,2-dihydroquinoline-4-carboxamide], 64 nM.
To `Cn1c(=O)c(O)c(C(=O)NCc2nc3ccccc3s2)c2ccccc21` [Example 107, N-(benzo[d]thiazol-2-ylmethyl)-3-hydroxy-1-methyl-2-oxo-1,2-dihydroquinoline-4-carboxamide] belongs 11100 nM.
`Cn1c(=O)c(O)c(C(=O)NCCOc2ccc(Cl)cc2)c2ccccc21` [Example 26, N-(2-(4-chlorophenoxy)ethyl)-3-hydroxy-1-methyl-2-oxo-1,2-dihydroquinoline-4-carboxamide]: the IC50 was determined as 91 nM.
Regarding `O=C(NCC1CN(S(=O)(=O)c2ccc(Cl)c(Cl)c2)C1)c1c(O)c(=O)[nH]c2ccc(OC(F)(F)F)cc12` [Example 55, N-((1-(3,4-dichlorophenylsulfonyl)azetidin-3-yl)methyl)-3-hydroxy-2-oxo-6-(trifluoromethoxy)-1,2-dihydroquinoline-4-carboxamide], the IC50 was 25 nM.
To `Cn1c(=O)c(O)c(C(=O)NCCc2ccc(-c3ccc(F)cc3)cc2)c2ccccc21` [Example 151, N-(2-(4′-fluorobiphenyl-4-yl)ethyl)-3-hydroxy-1-methyl-2-oxo-1,2-dihydroquinoline-4-carboxamide] belongs 75 nM.
To `Cn1c(=O)c(O)c(C(=O)NCc2ccc(OC(F)(F)F)cc2)c2ccccc21` [Example 85, 3-hydroxy-1-methyl-2-oxo-N-(4-(trifluoromethoxy)benzyl)-1,2-dihydroquinoline-4-carboxamide] belongs 43 nM; to `COc1ccccc1OCCCNC(=O)c1c(O)c(=O)n(C)c2ccccc12` [Example 147, 3-hydroxy-N-(3-(2-methoxyphenoxy)propyl)-1-methyl-2-oxo-1,2-dihydroquinoline-4-carboxamide], 49 nM.
The same measure for `Cn1c(=O)c(O)c(C(=O)NCCCN2CCCC2=O)c2ccccc21` [Example 103, 3-hydroxy-1-methyl-2-oxo-N-(3-(2-oxopyrrolidin-1-yl)propyl)-1,2-dihydroquinoline-4-carboxamide]: 9360 nM.
Consider `Cn1c(=O)c(O)c(C(=O)NCCCOc2ccc(-c3ccccc3)cc2)c2ccccc21` [Example 133, N-(3-(biphenyl-4-yloxy)propyl)-3-hydroxy-1-methyl-2-oxo-1,2-dihydroquinoline-4-carboxamide], for which the IC50 was 10 nM.
Take `O=C(NCCCc1ccc(Cl)cc1Cl)c1c(O)c(=O)[nH]c2ccc(OC(F)(F)F)cc12` [Example 28, N-(3-(2,4-dichlorophenyl)propyl)-3-hydroxy-2-oxo-6-(trifluoromethoxy)-1,2-dihydroquinoline-4-carboxamide]: the IC50 stood at 35 nM.
As to `Cn1c(=O)c(O)c(C(=O)NCCc2ccc(C(F)(F)F)cc2)c2ccccc21` [Example 92, 3-hydroxy-1-methyl-2-oxo-N-(4-(trifluoromethyl)phenethyl)-1,2-dihydroquinoline-4-carboxamide], the IC50 was 84 nM.
On to `Cn1c(=O)c(O)c(C(=O)NCCCc2ccccc2Cl)c2ccccc21` [Example 27, N-(3-(2-chlorophenyl)propyl)-3-hydroxy-1-methyl-2-oxo-1,2-dihydroquinoline-4-carboxamide], for which the IC50 worked out at 35 nM.
The same measure for `COC[C@H](Cc1ccccc1)NC(=O)c1c(O)c(=O)n(C)c2ccccc12` [Example 96, (S)-3-hydroxy-N-(1-methoxy-3-phenylpropan-2-yl)-1-methyl-2-oxo-1,2-dihydroquinoline-4-carboxamide]: 8530 nM; for `Cn1c(=O)c(O)c(C(=O)NCCCc2ccc(Cl)c(Cl)c2)c2cc(Cl)ccc21` [Example 3, 6-Chloro-N-(3-(3,4-dichlorophenyl)propyl)-3-hydroxy-1-methyl-2-oxo-1,2-dihydroquinoline-4-carboxamide]: 10 nM.
As to `O=C(NCCCOc1ccccc1C(F)(F)F)c1c(O)c(=O)[nH]c2ccc(OC(F)(F)F)cc12` [Example 50, 3-hydroxy-2-oxo-6-(trifluoromethoxy)-N-(3-(2-(trifluoromethyl)phenoxy)propyl)-1,2-dihydroquinoline-4-carboxamide], the half-maximal inhibitory concentration (IC50) is 12 nM.
The same measure for `O=C(NCc1cccc(-c2ccc(Cl)cc2)c1)c1c(O)c(=O)[nH]c2ccc(OC(F)(F)F)cc12` [Example 42, N-((4′-chlorobiphenyl-3-yl)methyl)-3-hydroxy-2-oxo-6-(trifluoromethoxy)-1,2-dihydroquinoline-4-carboxamide]: 96 nM; for `Cn1c(=O)c(O)c(C(=O)NCc2cccc(OC(F)(F)F)c2)c2ccccc21` [Example 86, 3-hydroxy-1-methyl-2-oxo-N-(3-(trifluoromethoxy)benzyl)-1,2-dihydroquinoline-4-carboxamide]: 37 nM; for `Cn1c(=O)c(O)c(C(=O)NCc2csc(-c3ccccc3)n2)c2ccccc21` [Example 90, 3-hydroxy-1-methyl-2-oxo-N-((2-phenylthiazol-4-yl)methyl)-1,2-dihydroquinoline-4-carboxamide]: 83 nM.
The same measure for `Cn1c(=O)c(O)c(C(=O)NCCCc2ccc(Cl)c(Cl)c2)c2ccccc21` [Example 1, N-(3-(3,4-dichlorophenyl)propyl)-3-hydroxy-1-methyl-2-oxo-1,2-dihydroquinoline-4-carboxamide]: 10 nM; for `Cn1c(=O)c(O)c(C(=O)NCc2ccc(C(F)(F)F)cc2)c2ccccc21` [Example 105, 3-hydroxy-1-methyl-2-oxo-N-(4-(trifluoromethyl)benzyl)-1,2-dihydroquinoline-4-carboxamide]: 100 nM; for `O=C(NCCCc1c(Cl)cccc1Cl)c1c(O)c(=O)[nH]c2ccc(OC(F)(F)F)cc12` [Example 43, N-(3-(2,6-dichlorophenyl)propyl)-3-hydroxy-2-oxo-6-(trifluoromethoxy)-1,2-dihydroquinoline-4-carboxamide]: 70 nM.
